# Results taken from patent US11370798B2 (Vertex Pharmaceuticals Incorporated, priority 2012, dated 2022).
# System: HCT116 colorectal cancer cells
# Assay: Cisplatin sensitization assay (96 h cell viability MTS);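 further: Test-compound concentration that lowers the Cisplatin IC50 by a set fold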
# Assay type: cell-based
# Details: compound and Cisplatin added simultaneously, Cisplatin sensitization value
# Description: Compounds can be screened for their ability to sensitize HCT116 colorectal cancer cells to Cisplatin using a 96 h cell viability (MTS) assay. […] Compounds and Cisplatin are then both added simultaneously to the cell media in 2-fold serial dilutions from a top final concentration of 10 μM as a full matrix of concentrations in a final cell volume of 200 μl, and the cells are then incubated at 37° C. in 5% CO2. After 96 h, 40 μl of MTS reagent (Promega G358a) is added to each well and the cells are incubated for 1 h at 37° C. in 5% CO2.
# Compounds with a Cisplatin sensitization value of <0.02 μM are marked with “+++.” Compounds with a Cisplatin sensitization value>0.02 μM but <0.2 μM are marked with “++.” Compounds with a Cisplatin sensitization value>0.2 μM but <5 μM are marked with “+.”
row,SMILES,Cisplatin Sensitization Assay
1,"Nc1nn2cc(F)cnc2c1C(=O)Nc1cnccc1-c1ccc(C(=O)N2CCN(C3COC3)CC2)cc1 [I-C-49, 2-amino-6-fluoro-N-(4-(4-(4-(oxetan-3-yl)piperazine-1-carbonyl)phenyl)pyridin-3-yl)pyrazolo[1,5-a]pyrimidine-3-carboxamide]",+++ (Cisplatin sensitization value of <0.02 μM)
2,"Nc1nn2cc(F)cnc2c1C(=O)Nc1cnccc1-c1ccc(C(=O)N2CCN3CCC2CC3)cc1F [I-C-50, N-(4-(4-(1,4-diazabicyclo[3.2.2]nonane-4-carbonyl)-2-fluorophenyl)pyridin-3-yl)-2-amino-6-fluoropyrazolo[1,5-a]pyrimidine-3-carboxamide]",+++ (Cisplatin sensitization value of <0.02 μM)
3,"Nc1nn2cc(F)cnc2c1C(=O)Nc1cnccc1-c1ccc(C(=O)N2CCN(C3COC3)CC2)cc1F [I-C-51, 2-amino-6-fluoro-N-(4-(2-fluoro-4-(4-(oxetan-3-yl)piperazine-1-carbonyl)phenyl)pyridin-3-yl)pyrazolo[1,5-a]pyrimidine-3-carboxamide]",++ (Cisplatin sensitization value>0.02 μM but <0.2 μM)
4,"Nc1nn2cc(F)cnc2c1C(=O)Nc1cnccc1-c1ccc(C(=O)N2CCN(C3COC3)CC2)nc1 [I-C-52, 2-amino-6-fluoro-N-(6-(4-(oxetan-3-yl)piperazine-1-carbonyl)-[3,4′-bipyridin]-3′-yl)pyrazolo[1,5-a]pyrimidine-3-carboxamide]",++ (Cisplatin sensitization value>0.02 μM but <0.2 μM)
5,"Nc1nn2cc(F)cnc2c1C(=O)Nc1cnccc1-c1ccc(C(=O)N2CCC(N3CCCC3)CC2)nc1 [I-C-53, 2-amino-6-fluoro-N-(6-(4-(pyrrolidin-1-yl)piperidine-1-carbonyl)-[3,4′-bipyridin]-3′-yl)pyrazolo[1,5-a]pyrimidine-3-carboxamide]",+++ (Cisplatin sensitization value of <0.02 μM)
6,"Nc1nn2cc(F)cnc2c1C(=O)Nc1cnccc1-c1ccc(C(=O)N2CCC(N3CCC3)CC2)nc1 [I-C-54, 2-amino-N-(6-(4-(azetidin-1-yl)piperidine-1-carbonyl)-[3,4′-bipyridin]-3′-yl)-6-fluoropyrazolo[1,5-a]pyrimidine-3-carboxamide]",+++ (Cisplatin sensitization value of <0.02 μM)
7,"Cn1ccnc1-c1ccncc1NC(=O)c1c(N)nn2cc(F)cnc12 [I-C-55, 2-amino-6-fluoro-N-(4-(1-methyl-1H-imidazol-2-yl)pyridin-3-yl)pyrazolo[1,5-a]pyrimidine-3-carboxamide]",+ (Cisplatin sensitization value>0.2 μM but <5 μM)
8,"Cn1cncc1-c1ccncc1NC(=O)c1c(N)nn2cc(F)cnc12 [I-C-56, 2-amino-6-fluoro-N-(4-(1-methyl-1H-imidazol-5-yl)pyridin-3-yl)pyrazolo[1,5-a]pyrimidine-3-carboxamide]",+++ (Cisplatin sensitization value of <0.02 μM)
9,"Cn1nccc1-c1ccncc1NC(=O)c1c(N)nn2cc(F)cnc12 [I-C-57, 2-amino-6-fluoro-N-(4-(1-methyl-1H-pyrazol-5-yl)pyridin-3-yl)pyrazolo[1,5-a]pyrimidine-3-carboxamide]",+++ (Cisplatin sensitization value of <0.02 μM)
10,"Cn1c(-c2ccncc2NC(=O)c2c(N)nn3cc(F)cnc23)cccc1=O [I-C-58, 2-amino-6-fluoro-N-(1-methyl-6-oxo-1,6-dihydro-[2,4′-bipyridin]-3′-yl)pyrazolo[1,5-a]pyrimidine-3-carboxamide]",+++ (Cisplatin sensitization value of <0.02 μM)
11,"Cn1cc(-c2ccncc2NC(=O)c2c(N)nn3cc(F)cnc23)ccc1=O [I-C-59, 2-amino-6-fluoro-N-(1-methyl-6-oxo-1,6-dihydro-[3,4′-bipyridin]-3′-yl)pyrazolo[1,5-a]pyrimidine-3-carboxamide]",++ (Cisplatin sensitization value>0.02 μM but <0.2 μM)
12,"Nc1nn2cc(F)cnc2c1C(=O)Nc1cnccc1-c1ccccn1 [I-C-60, N-([2,4′-bipyridin]-3′-yl)-2-amino-6-fluoropyrazolo[1,5-a]pyrimidine-3-carboxamide]",++ (Cisplatin sensitization value>0.02 μM but <0.2 μM)
13,"CS(=O)(=O)c1ccc(-c2ccncc2NC(=O)c2c(N)nn3cc(F)cnc23)cc1 [I-C-61, 2-amino-6-fluoro-N-(4-(4-(methylsulfonyl)phenyl)pyridin-3-yl)pyrazolo[1,5-a]pyrimidine-3-carboxamide]",+++ (Cisplatin sensitization value of <0.02 μM)
14,"Cc1nccnc1-c1ccncc1NC(=O)c1c(N)nn2cc(F)cnc12 [I-C-62, 2-amino-6-fluoro-N-(4-(3-methylpyrazin-2-yl)pyridin-3-yl)pyrazolo[1,5-a]pyrimidine-3-carboxamide]",++ (Cisplatin sensitization value>0.02 μM but <0.2 μM)
15,"Cc1nn(C)cc1-c1ccncc1NC(=O)c1c(N)nn2cc(F)cnc12 [I-C-63, 2-amino-N-(4-(1,3-dimethyl-1H-pyrazol-4-yl)pyridin-3-yl)-6-fluoropyrazolo[1,5-a]pyrimidine-3-carboxamide]",+++ (Cisplatin sensitization value of <0.02 μM)
16,"Nc1nn2cc(F)cnc2c1C(=O)Nc1cnccc1-c1ccc(S(=O)(=O)N2CCC2)cc1 [I-C-64, 2-amino-N-(4-(4-(azetidin-1-ylsulfonyl)phenyl)pyridin-3-yl)-6-fluoropyrazolo[1,5-a]pyrimidine-3-carboxamide]",+++ (Cisplatin sensitization value of <0.02 μM)
17,"Cn1ncnc1-c1ccncc1NC(=O)c1c(N)nn2cc(F)cnc12 [I-C-65, 2-amino-6-fluoro-N-(4-(1-methyl-1H-1,2,4-triazol-5-yl)pyridin-3-yl)pyrazolo[1,5-a]pyrimidine-3-carboxamide]",++ (Cisplatin sensitization value>0.02 μM but <0.2 μM)
18,"CN1CCOC[C@@H]1c1ccc(-c2ccncc2NC(=O)c2c(N)nn3cc(F)cnc23)cc1 [I-C-66, (S)-2-amino-6-fluoro-N-(4-(4-(4-methylmorpholin-3-yl)phenyl)pyridin-3-yl)pyrazolo[1,5-a]pyrimidine-3-carboxamide]",+++ (Cisplatin sensitization value of <0.02 μM)
19,"Cc1cncnc1-c1ccncc1NC(=O)c1c(N)nn2cc(F)cnc12 [I-C-67, 2-amino-6-fluoro-N-(4-(5-methylpyrimidin-4-yl)pyridin-3-yl)pyrazolo[1,5-a]pyrimidine-3-carboxamide]",++ (Cisplatin sensitization value>0.02 μM but <0.2 μM)
20,"Cn1ccc(-c2ccncc2NC(=O)c2c(N)nn3cc(F)cnc23)n1 [I-C-68, 2-amino-6-fluoro-N-(4-(1-methyl-1H-pyrazol-3-yl)pyridin-3-yl)pyrazolo[1,5-a]pyrimidine-3-carboxamide]",+ (Cisplatin sensitization value>0.2 μM but <5 μM)
21,"CC(=O)N1CCC(c2ccncc2NC(=O)c2c(N)nn3cc(F)cnc23)CC1 [I-C-69, N-(4-(1-acetylpiperidin-4-yl)pyridin-3-yl)-2-amino-6-fluoropyrazolo[1,5-a]pyrimidine-3-carboxamide]",+++ (Cisplatin sensitization value of <0.02 μM)
22,"Nc1nn2cc(F)cnc2c1C(=O)Nc1cnccc1C1CCN(C(=O)C2CC2)CC1 [I-C-70, 2-amino-N-(4-(1-(cyclopropanecarbonyl)piperidin-4-yl)pyridin-3-yl)-6-fluoropyrazolo[1,5-a]pyrimidine-3-carboxamide]",+++ (Cisplatin sensitization value of <0.02 μM)
23,"N#CC1(C(=O)N2CCC(c3ccncc3NC(=O)c3c(N)nn4cc(F)cnc34)CC2)CC1 [I-C-71, 2-amino-N-(4-(1-(1-cyanocyclopropanecarbonyl)piperidin-4-yl)pyridin-3-yl)-6-fluoropyrazolo[1,5-a]pyrimidine-3-carboxamide]",+++ (Cisplatin sensitization value of <0.02 μM)
24,"Cn1nncc1-c1ccncc1NC(=O)c1c(N)nn2cc(F)cnc12 [I-C-72, 2-amino-6-fluoro-N-(4-(1-methyl-1H-1,2,3-triazol-5-yl)pyridin-3-yl)pyrazolo[1,5-a]pyrimidine-3-carboxamide]",+++ (Cisplatin sensitization value of <0.02 μM)
25,"CN1CCC(c2ccncc2NC(=O)c2c(N)nn3cc(F)cnc23)CC1=O (centres unmarked) [I-C-73, 2-amino-6-fluoro-N-(4-(1-methyl-2-oxopiperidin-4-yl)pyridin-3-yl)pyrazolo[1,5-a]pyrimidine-3-carboxamide]",++ (Cisplatin sensitization value>0.02 μM but <0.2 μM)
26,"Cn1ccc2c(NC(=O)c3c(N)nn4cc(F)cnc34)cncc21 [I-C-74, 2-amino-6-fluoro-N-(1-methyl-1H-pyrrolo[2,3-c]pyridin-4-yl)pyrazolo[1,5-a]pyrimidine-3-carboxamide]",+ (Cisplatin sensitization value>0.2 μM but <5 μM)
27,"Nc1nn2cc(F)cnc2c1C(=O)Nc1cnccc1C1CCOC1 (centres unmarked) [I-C-75, 2-amino-6-fluoro-N-(4-(tetrahydrofuran-3-yl)pyridin-3-yl)pyrazolo[1,5-a]pyrimidine-3-carboxamide]",++ (Cisplatin sensitization value>0.02 μM but <0.2 μM)
28,"Nc1nn2cc(F)cnc2c1C(=O)Nc1cnccc1CN1CCCC1=O [I-C-76, 2-amino-6-fluoro-N-(4-((2-oxopyrrolidin-1-yl)methyl)pyridin-3-yl)pyrazolo[1,5-a]pyrimidine-3-carboxamide]",+ (Cisplatin sensitization value>0.2 μM but <5 μM)
29,"Cc1ncc(-c2ccncc2NC(=O)c2c(N)nn3cc(F)cnc23)n1C [I-C-77, 2-amino-N-(4-(1,2-dimethyl-1H-imidazol-5-yl)pyridin-3-yl)-6-fluoropyrazolo[1,5-a]pyrimidine-3-carboxamide]",+++ (Cisplatin sensitization value of <0.02 μM)
